{
  "source": "patent US20080070971A1",
  "about": "“Medical Use of Bilirubin and its Structural Analogues” (priority 2006, published 2008)",
  "key": {"[1]": {"test_system": "Pancreas phospholipase A2 (PLA2)", "test": "Phospholipase A2 FlashPlate inhibition assay", "assay_type": "biochemical", "settings": "bilirubin concentration of about 10 mg/L; pH=7.2 (FIG. 1)", "protocol": "Pancreas phospholipase A2 (PLA2) (SigmaAldrich Cat.# P223), acetylcholinesterase (SigmaAldrich cat.# C0663), acetyleholine chloride (Cat.# A6625), and bilirubin (SigmaAldrich #B4126) were purchased from SigmaAldrich. Bilirubin solution was prepared freshly by dissolving it in dimethyl sulfoxide (DMSO) and further dilutions were made in Tris-HCl buffer (pH 7.4). The sPLA2 activity was determined by the FlashPlate assay procedure described by Do and Kasila (American Biotechnology Laboratory, June 2001, P 51-52). Briefly, phospholipid flash plates (PerkinElmer Life Sciences, cat. #SMP108) were coated with 0.2 mL/well of the substrate of 1-steroyl 2-arachidonyl phosphatidylcholine (PerkinElmer Life Sciences, cat. #NE872). The plate was covered and incubated overnight at room temperature. After the incubation, the wells were aspirated prior to use in the PLA2 assay. The substrate assay buffer contained 50 mM tris-HCl (pH=7.3), 0.2 M NaCl, 0.1 mM CaCl2, 0.1 mM EDTA, 0.02% deoxycholate, 10-50 units/mL PLA2, and final volume 200 μL/well. The bound radioactivity was determined by counting the FlashPlate."}, "[2]": {"test_system": "histone deacetylase (HDAC), HeLa cell lysate", "test": "Histone deacetylase (HDAC) assay", "assay_type": "biochemical", "protocol": "Assay of histone decaetylase (HDAC). The activity of HDAC was measured according to the procedure provided by SigmaAldrich (Histone Deacetylase Assay Kit, Cat.# CS1010). HeLa cel lysate provided by the assay kit was used as a source for HDAC activity in the inhibition testing."}, "cyclooxygenase (COX)": {"test_system": "cyclooxygenase (COX)", "test": "Cyclooxygenase (COX) inhibition", "assay_type": "biochemical, human", "protocol": "The activity of COX was determined by the procedure described in Assay Design's Enzyme Immunometric Assay (EIA) kit (Assay Design Inc., TiterZyme EIA cat.#900-094). Briefly, the kit uses a monoclonal antibody to human COX-II immobilized on a microtiter plate to bind the human COX in the standard or sample. After a short incubation the excess standard or sample is washed out and a rabbit polyclonal antibody to human COX labeled with the enzyme. Horseradish peroxidase is added. This labeled antibody binds to the human COX captured on the plate. After a short incubation the excess labeled antibody is washed out and substrate is added. The substrate reacts with the labeled antibody bound to the human COX captured on the plate. After a short incubation, the enzyme reaction is stopped and the color generated is read at 450 nm. The measured optical density is directly proportional to the concentration of human COX.\nPurified cyclooxygenases (COX) were obtained from Kayman Chemical Company and used to examine the inhibitory effect of bilirubin with arachidonic acid as the substrate. High purity of bilirubin (SigmaAldrich #B4126), biliverdin (Frontier Scientific Inc., Cat. B655-9) and hemin (SigmaAldrich, #51280) were used as received."}, "[3]": {"test_system": "liver cholesterol esterase", "test": "Cholesterol esterification by liver cholesterol esterase", "assay_type": "biochemical"}, "[4]": {"biological_target": "T1, cholesterol esterase (CHE) (Homo sapiens, UniProt P19835)", "T1 sequence (P19835 21-753)": "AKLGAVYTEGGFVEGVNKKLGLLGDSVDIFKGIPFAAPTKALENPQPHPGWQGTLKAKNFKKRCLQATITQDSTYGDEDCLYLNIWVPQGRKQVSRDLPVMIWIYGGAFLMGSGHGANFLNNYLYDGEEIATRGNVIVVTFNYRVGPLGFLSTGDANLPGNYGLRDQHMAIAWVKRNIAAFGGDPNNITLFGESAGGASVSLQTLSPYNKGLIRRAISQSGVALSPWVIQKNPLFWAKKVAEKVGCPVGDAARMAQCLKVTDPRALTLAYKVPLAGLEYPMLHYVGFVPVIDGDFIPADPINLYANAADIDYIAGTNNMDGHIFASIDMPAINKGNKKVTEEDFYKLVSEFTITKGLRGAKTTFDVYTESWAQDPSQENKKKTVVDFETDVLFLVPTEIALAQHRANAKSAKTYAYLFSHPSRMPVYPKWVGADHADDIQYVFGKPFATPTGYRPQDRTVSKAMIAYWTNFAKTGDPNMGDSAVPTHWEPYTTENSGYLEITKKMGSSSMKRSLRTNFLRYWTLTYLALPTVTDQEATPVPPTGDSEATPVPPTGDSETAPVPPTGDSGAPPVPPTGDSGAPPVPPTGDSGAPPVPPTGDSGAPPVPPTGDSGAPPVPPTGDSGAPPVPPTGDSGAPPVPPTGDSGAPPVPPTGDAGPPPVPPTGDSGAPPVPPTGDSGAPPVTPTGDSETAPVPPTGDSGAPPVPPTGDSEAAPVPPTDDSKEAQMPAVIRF", "test": "Cholesterol esterase inhibition", "assay_type": "biochemical", "settings": "bilirubin concentration of about 10 mg/L; pH=7.2 (FIG. 1)"}, "[5]": {"test": "Oral bilirubin supplementation, blood chemistry", "assay_type": "in vivo", "protocol": "2-6 bilirubin pills (10 mg/capsule)were ingested daily as a dietary supplement over time period from 3-12 months. Blood samples were taken by medical professionals and blood chemistry, including serum bilirubin level, total cholesterol, triglyceride, LDL-cholesterol, and HDL cholesterol were analyzed by independent medical testing laboratories."}, "[6]": {"test": "Minimal erythema dose (MED) on skin exposed to solar radiation", "assay_type": "in vivo, human", "excerpt": "Healthy volunteers were exposed to solar radiation for evaluation of minimal erythema dose (MED)—a direct sign of acute inflammation, without and with pretreatment of bilirubin (dissolved in dimethyl sulfoxide)."}, "Human carcinoma cells": {"test_system": "Human carcinoma cells", "test": "Cancer cell growth by cell counting", "assay_type": "cell-based", "settings": "concentrations above 10 mg/L (FIG. 10)", "protocol": "Cell growth. Human carcinoma cells were cultured continuously in a medium containing ferrous sulfate, kept in a humidified incubator at 37° C. Cancer cells were seeded in triplicate at a density of 10,000 cells/3.5-cm culture dish overnight before being subjected to treatments. Growth was estimated by counting cells in a hemocytometer after staining cells with trypan blue. Cell yields from cultures maintained in seeding medium served as growth controls for computing the relative cell growth."}, "[7]": {"settings": "2-6 pills (10 mg/capsule) daily, 3-12 months"}, "[8]": {"settings": "at higher serum bilirubin level (FIG. 12)"}},
  "data": [
    {"smiles": "C=CC1=C(C)C(=Cc2[nH]c(Cc3[nH]c(C=C4NC(=O)C(C)=C4C=C)c(C)c3CCC(=O)O)c(CCC(=O)O)c2C)NC1=O", "note": "[bilirubin, 2,7,13,17-tetramethyl-1,19-dioxo-3,18-divinyl-1,10,19,22,23,24-hexahydro-21H-biline-8,12-dipropanoic acid]", "values": [
      {"measurement": "inhibition of the PLA2 activity", "setting": "[1]", "value": "about 80%"},
      {"measurement": "50% inhibition concentration (IC50)", "setting": "[2]; substrate concentration 5 μM", "value": 16.5, "unit": "µg/mL"},
      {"measurement": "50% inhibition concentration (IC50)", "setting": "[2]; substrate concentration 50 μM", "value": 40, "unit": "µg/mL"},
      {"measurement": "inhibition of the COX activity", "setting": "cyclooxygenase (COX); 10 mg/L bilirubin (FIG. 3)", "value": "Up to 70%"},
      {"measurement": "reducing COX activity (comparison)", "setting": "cyclooxygenase (COX); concentration of 10 mg/L (FIG. 4)", "value": "effective in reducing COX activity"},
      {"measurement": "inhibition of cholesterol esterification by liver cholesterol esterase", "setting": "[3]", "value": "inhibits"},
      {"measurement": "inhibition at 10 µg/mL", "setting": "[4]", "value": "~50", "unit": "%"},
      {"measurement": "total cholesterol concentration", "setting": "[5]; [7]", "value": "varied inversely"},
      {"measurement": "total serum bilirubin level", "setting": "[5]; [7]", "value": "effectively increased"},
      {"measurement": "LDL-cholesterol level", "setting": "[5]; [8]", "value": "lower"},
      {"measurement": "triglycerol level", "setting": "[5]; [8]", "value": "lower"},
      {"measurement": "fecal fat content", "setting": "[5]; bilirubin treatment", "value": "substantially increased"},
      {"measurement": "skin inflammation after UV exposure", "setting": "[6]; bilirubin treated skin areas", "value": "no sign of inflammation"},
      {"measurement": "minimal erythema dose (MED)", "setting": "[6]; topical pretreatment with bilirubin in DMSO (FIG. 8)", "value": "increased"},
      {"measurement": "relative cell growth", "setting": "Human carcinoma cells", "value": "largely suppressed"}
    ]}
  ]
}
